{"source": "EPA's ToxValDB 9.5 (doi:10.2903/j.efsa.2009.181r)", "key": {"[1]": {"test_system": "Apis mellifera", "settings": "acute; dermal; mortality"}, "[2]": {"test_system": "Colinus virginianus", "settings": "mortality"}, "[3]": {"test_system": "Avena sativa", "settings": "chronic/long-term; body weight"}, "[4]": {"test_system": "Bibionidae", "settings": "chronic/long-term; duration: 28 days; seedling emergence"}, "[5]": {"test_system": "Anas platyrhynchos", "settings": "short-term; oral; feed; mortality"}, "[6]": {"test_system": "Daphnia magna", "settings": "chronic/long-term; duration: 21 days; reproduction"}, "[7]": {"test_system": "Pardosa sp.", "settings": "acute; duration: 7 days; mortality"}, "[8]": {"test_system": "Tagia sp."}, "[9]": {"test_system": "Oncorhynchus mykiss"}, "[10]": {"test_system": "Rattus norvegicus"}}, "data": [{"smiles": "CC(C)N(C(=O)SCC(Cl)=C(Cl)Cl)C(C)C", "note": "[Tri-allate]", "values": [{"measurement": "LD50", "setting": "[1]", "result": "> 100", "unit": "µg/piece"}, {"measurement": "LD50", "setting": "[2]; acute, oral", "result": 1560, "unit": "mg/kg-day"}, {"measurement": "NOEC", "setting": "[2]; reproduction developmental", "result": 54, "unit": "mg/kg-day"}, {"measurement": "NOEC", "setting": "[3]", "result": 11, "unit": "g/ha"}, {"measurement": "NOEC", "setting": "[4]", "result": 0.583, "unit": "mg/L"}, {"measurement": "LC50", "setting": "[5]", "result": "> 1210", "unit": "mg/kg-day"}, {"measurement": "NOEC", "setting": "[6]", "result": 0.013, "unit": "mg/L"}, {"measurement": "LEL", "setting": "[7]", "result": 2280, "unit": "g/ha"}, {"measurement": "LC50", "setting": "[8]; acute, duration: 14 days, mortality", "result": 549, "unit": "mg/kg"}, {"measurement": "NOEC", "setting": "[8]; chronic/long-term, duration: 56 days, reproduction", "result": 27.2, "unit": "mg/kg"}, {"measurement": "LC50", "setting": "[9]; acute, duration: 96 hours, mortality", "result": 0.95, "unit": "µg/mL"}, {"measurement": "NOEC", "setting": "[9]; chronic/long-term, duration: 88 days, growth", "result": 0.038, "unit": "mg/L"}, {"measurement": "NOAEL", "setting": "[10]; acute, oral, clinical signs", "result": 60, "unit": "mg/kg-day"}, {"measurement": "LD50", "setting": "[10]; acute, oral, mortality", "result": 1100, "unit": "mg/kg"}, {"measurement": "NOEL", "setting": "[10]; chronic, M, mortality", "result": 9, "unit": "mg/kg-day"}, {"measurement": "NOAEL", "setting": "[10]; chronic, duration: 2 years, oral, diet, mortality", "result": 2.5, "unit": "mg/kg-day"}, {"measurement": "NOAEL", "setting": "[10]; subchronic, duration: 90 days, histopathology: nonneoplastic", "result": 6.4, "unit": "mg/kg-day"}]}]}
